Source: US8399462B2, “JNK modulators” (Roche Palo Alto LLC, priority 2006, dated 2013)

melting point [°C] | SMILES
222 to 223 | CC(C)Oc1cccc2c1cnn2-c1ccnc(N[C@H]2CC[C@H](N(C)S(C)(=O)=O)CC2)n1 [Compound 189, N-{4-[4-(4-isopropoxy-indazol-1-yl)-pyrimidin-2-ylamino]-cyclohexyl}-N-methyl-methanesulfonamide]
248.3 to 249 | CS(=O)(=O)N[C@H]1CC[C@H](Nc2nccc(-n3ccc4c(C5(O)CCOCC5)cccc43)n2)CC1 [Compound 194, N-(4-{4-[4-(4-hydroxy-tetrahydropyran-4-yl)-indol-1-yl]-pyrimidin-2-ylamino}-cyclohexyl)-methanesulfonamide]
179 to 180 | CS(=O)(=O)N[C@H]1CC[C@H](Nc2nccc(-n3ccc4c(OCC5CCN(C(=O)OCc6ccccc6)CC5)cccc43)n2)CC1 [Compound 195, 4-{1-[2-(4-methane-sulfonylamino-cyclo-hexylamino)-pyrimidin-4-yl]-1H-indol-4-yloxymethyl}-piperidine-1-carboxylic acid benzyl ester]
259 to 259.5 | CN([C@H]1CC[C@H](Nc2nccc(-n3ncc4c(OCCCNS(C)(=O)=O)cccc43)n2)CC1)S(C)(=O)=O [Compound 197, N-[3-(1-{2-[4-(methane-sulfonyl-methylamino)-cyclohexylamino]-pyrimidin-4-yl}-1H-indazol-4-yloxy)-propyl]-methane-sulfonamide]
247 to 248 | CS(=O)(=O)N[C@H]1CC[C@H](Nc2nccc(-n3ccc4c(OCCCC#N)cccc43)n2)CC1 [Compound 202, N-(4-{4-[4-(3-cyano-propoxy)-indol-1-yl]-pyrimidin-2-ylamino}-cyclohexyl)-methane-sulfonamide]
210.5 to 212 | CC(=O)NCc1cccc2c1ccn2-c1ccnc(N[C@H]2CC[C@H](N(C)S(C)(=O)=O)CC2)n1 [Compound 205, N-(1-{2-[4-(methane-sulfonyl-methylamino)-cyclohexylamino]-pyrimidin-4-yl}-1H-indol-4-ylmethyl)-acetamide]
134 to 136 | N#CCCCOc1cccc2c1ccn2-c1ccnc(N[C@H]2CC[C@H](C(=O)N3CCC(O)CC3)CC2)n1 [Compound 206, 4-(1-{2-[4-(4-hydroxy-piperidin-1-carbonyl)-cyclohexylamino]-pyrimidin-4-yl}-1H-indol-4-yloxy)-butyro-nitrile]
204 to 205 | CC(C)(O)c1cccc2c1cnn2-c1ccnc(N[C@H]2CC[C@H](N3CCCS3(=O)=O)CC2)n1 [Compound 207, 2-(1-{2-[4-(1,1-dioxo-isothiazolidin-2yl)-cyclohexylamino]-pyrimidin-4-yl}-1H-indazol-4-yl)-propan-2-ol]
217.8 to 218.5 | CC(C)(O)[C@H]1CC[C@H](Nc2nccc(-n3ccc4c(S(C)(=O)=O)cccc43)n2)CC1 [Compound 209, 2-{4-[4-(4-methane-sulfonyl-indol-1-yl)-pyrimidin-2-ylamino]-cyclohexyl}-propan-2-ol]
171 to 172 | CC(C)(O)[C@H]1CC[C@H](Nc2nccc(-n3ncc4c(OCCCNS(C)(=O)=O)cccc43)n2)CC1 [Compound 210, N-[3-(1-{2-[4-(2-hydroxyprop-2-yl)-cyclohexylamino]-pyrimidin-4-yl}-1H-indazol-4-yloxy)-propyl]-methane-sulfonamide]
190.5 to 191 | C[S+]([O-])CCCOc1cccc2c1ccn2-c1ccnc(N[C@H]2CC[C@H](C(C)(C)O)CC2)n1 (stereo partly shown) [Compound 211, 2-(4-{4-[4-(3-methane-sulfinyl-propoxy)-indol-1-yl]-pyrimidin-2-ylamino}-cyclohexyl)-propan-2-ol]
250 to 251 | CC(C)(O)c1cccc2c1cnn2-c1ccnc(N[C@H]2CC[C@H](NS(C)(=O)=O)CC2)n1 [Compound 212, N-(4-{4-[4-(2-hydroxy-prop-2-yl)-indazol-1-yl]-pyrimidin-2-ylamino}-cyclohexyl)-methanesulfonamide]
226 to 227 | CC(=O)NCCCOc1cccc2c1cnn2-c1ccnc(N[C@H]2CC[C@H](N(C)S(C)(=O)=O)CC2)n1 [Compound 213, N-[3-(1-{2-[4-(methane-sulfonyl-methylamino)-cyclohexylamino]-pyrimidin-4-yl}-1H-indazol-4-yloxy)-propyl]-acetamide]
207 to 208 | CS(=O)(=O)CCCOc1cccc2c1ccn2-c1ccnc(N[C@H]2CC[C@H](CO)CC2)n1 [Compound 214, (4-{4-[4-(3-methanesulfonyl-propoxy)-indol-1-yl]-pyrimidin-2-ylamino}-cyclohexyl)-methanol]
206 to 207 | CS(=O)(=O)CCCOc1cccc2c1cnn2-c1ccnc(N[C@H]2CC[C@H](N3CCCS3(=O)=O)CC2)n1 [Compound 215, [4-(1,1-dioxo-isothiazolidin-2-yl)-cyclohexyl]-{4-[4-(3-methane-sulfonyl-propoxy)-indazol-1-yl]-pyrimidin-2-yl}-amine]
264 to 265 | CC(=O)N[C@H]1CC[C@H](Nc2nccc(-n3ccc4c(S(C)(=O)=O)cccc43)n2)CC1 [Compound 218, N-{4-[4-(4-methane-sulfonyl-indol-1-yl)-pyrimidin-2-ylamino]-cyclohexyl}-acetamide]
203 to 205 | COCCOc1cccc2c1ccn2-c1ccnc(N[C@H]2CC[C@H](NS(C)(=O)=O)CC2)n1 [Compound 221, N-(4-{4-[4-(2-methoxy-ethoxy)-indol-1-yl]-pyrimidin-2-ylamino}-cyclohexyl)-methanesulfonamide]
134 to 135 | COCCOc1cccc2c1ccn2-c1ccnc(N[C@H]2CC[C@H](C(=O)N3CCC(O)CC3)CC2)n1 [Compound 222, (4-hydroxy-piperidin-1-yl)-(4-{4-[4-(2-methoxy-ethoxy)-indol-1-yl]-pyrimidin-2-ylamino}-cyclohexyl)-methanone]
152 to 153 | CS(=O)(=O)CCCOc1cccc2c1ccn2-c1ccnc(N[C@H]2CC[C@H](C(=O)N3CC(O)C3)CC2)n1 [Compound 223, (3-hydroxy-azetidin-1-yl)-(4-{4-[4-(3-methane-sulfonyl-propoxy)-indol-1-yl]-pyrimidin-2-ylamino}-cyclohexyl)-methanone]
201 to 202 | N#CCCCOc1cccc2c1cnn2-c1ccnc(N[C@H]2CC[C@H](C(=O)N3CCC(O)CC3)CC2)n1 [Compound 226, 4-(1-{2-[4-(4-hydroxy-piperidine-1-carbonyl)-cyclohexylamino]-pyrimidin-4-yl}-1H-indazol-4-yloxy)-butyro-nitrile]
213 to 214.5 | CC(C)(CO)COc1cccc2c1cnn2-c1ccnc(N[C@H]2CC[C@H](C(=O)N3CCC(O)CC3)CC2)n1 [Compound 227, (4-{4-[4-(3-hydroxy-2,2-dimethylpropoxy)-indazol-1-yl]-pyrimidin-2-ylamino}-cyclohexyl)-(4-hydroxy-piperidin-1-yl)-methanone]
250 to 251 | CS(=O)(=O)N[C@H]1CC[C@H](Nc2nccc(-n3ncc4c(OCCCS(N)(=O)=O)cccc43)n2)CC1 [Compound 228, 3-{1-[2-(4-methane-sulfonylamino-cyclo-hexylamino)-pyrimidin-4-yl]-1H-indazol-4-yloxy}-propane-1-sulfonic acid amide]
190 to 191 | CN(C)S(=O)(=O)CCCOc1cccc2c1cnn2-c1ccnc(N[C@H]2CC[C@H](C(=O)N3CCC(O)CC3)CC2)n1 [Compound 229, 3-(1-{2-[4-(4-hydroxy-piperidin-1-carbonyl)-cyclohexylamino]-pyrimidin-4-yl}-1H-indazol-4-yloxy)-propane-1-sulfonic acid dimethylamide]
> 300 | CS(=O)(=O)N[C@H]1CC[C@H](Nc2nccc(-n3ccc4c(C5(O)CCS(=O)(=O)CC5)cccc43)n2)CC1 [Compound 230, N-(4-{4-[4-(4-hydroxy-1,1-dioxohexahydro-thiopyran-4-yl)-indol-1-yl]-pyrimidin-2-yl-amino}-cyclohexyl)-methanesulfonamide]
271 to 272 | O=C([C@H]1CC[C@H](Nc2nccc(-n3ccc4c(C5(O)CCS(=O)(=O)CC5)cccc43)n2)CC1)N1CCC(O)CC1 [Compound 231, (4-{4-[4-(4-hydroxy-1,1-dioxo-hexahydro-thiopyran-4-yl)-indol-1-yl]-pyrimidin-2-yl-amino}-cyclohexyl)-(4-hydroxy-piperidin-1-yl)-methanone]
168 to 169 | O=C([C@H]1CC[C@H](Nc2nccc(-n3ccc4c(C5(O)CCOCC5)cccc43)n2)CC1)N1CCC(O)CC1 [Compound 232, (4-hydroxy-piperidin-1-yl)-(4-{4-[4-(4-hydroxy-tetrahydro-pyran-4-yl)-indol-1-yl]-pyrimidin-2-ylamino}-cyclohexyl)-methanone]
207 to 208 | COCCCOc1cccc2c1ccn2-c1ccnc(N[C@H]2CC[C@H](NS(C)(=O)=O)CC2)n1 [Compound 236, N-(4-{4-[4-(3-methoxy-propoxy)-indol-1-yl]-pyrimidin-2-ylamino}-cyclohexyl)-methanesulfonamide]
115 to 116 | CS(=O)(=O)CCCOc1cccc2c1ccn2-c1ccnc(N[C@H]2CC[C@H](C(=O)N3CCC(F)CC3)CC2)n1 [Compound 239, (4-fluoro-piperidin-1-yl)-(4-{4-[4-(3-methane-sulfonyl-propoxy)-indol-1-yl]-pyrimidin-2ylamino}-cyclohexyl)-methanone]

SMILES | melting point [°C]
CCCCOc1cccc2c1cnn2-c1ccnc(N[C@H]2CC[C@H](N(C)S(C)(=O)=O)CC2)n1 [Compound 190, N-{4-[4-(4-butoxy-indazol-1-yl)-pyrimidin-2-ylamino]-cyclohexyl}-N-methyl-methanesulfonamide] | 191 to 192
CC(C)COc1cccc2c1cnn2-c1ccnc(N[C@H]2CC[C@H](N(C)S(C)(=O)=O)CC2)n1 [Compound 191, N-{4-[4-(4-isobutoxy-indazol-1-yl)-pyrimidin-2-ylamino]-cyclohexyl}-N-methyl-methanesulfonamide] | 227 to 228
CS(=O)(=O)N[C@H]1CC[C@H](Nc2nccc(-n3ccc4c(OCCCC(F)(F)F)cccc43)n2)CC1 [Compound 235, N-(4-{4-[4-(4,4,4-tri-fluoro-butoxy)-indol-1-yl]-pyrimidin-2-yl-amino}-cyclohexyl)-methanesulfonamide] | 241 to 242
